From ChEMBL document CHEMBL1146982, “Alpha-methylated derivatives of 2-arachidonoyl glycerol: synthesis, CB1 receptor activity, and enzymatic stability” (Bioorg Med Chem Lett, 2006)
The source made the active and inactive calls. The calls are words filed in the database; no cut-off is given here.

Assays:
Type in all cases: functional, tissue-based
[1] = target: Cannabinoid receptor 1 (Rattus norvegicus) (UniProt P20272); assay: Efficacy at CB1 receptor in rat brain by [35S]GTPgammaS binding assay (basal value set at 100%)
Cannabinoid receptor 1 = Cannabinoid receptor 1 (Rattus norvegicus, UniProt P20272); assay: Potency at CB1 receptor in rat brain by [35S]GTP-gamma-S binding assay
[2] = target: Cannabinoid receptor 1 (Rattus norvegicus) (UniProt P20272); assay: Potency at CB1 receptor in rat brain by [35S]GTP-gamma-S binding assay at 0.1 mM
[3] = target: Cannabinoid receptor 1 (Rattus norvegicus) (UniProt P20272); assay: Efficacy at CB1 receptor in rat brain by [35S]GTP-gamma-S binding assay at 0.1 mM (basal value set at 100%)

Chain of Cannabinoid receptor 1 (Rattus norvegicus) (P20272 whole entry): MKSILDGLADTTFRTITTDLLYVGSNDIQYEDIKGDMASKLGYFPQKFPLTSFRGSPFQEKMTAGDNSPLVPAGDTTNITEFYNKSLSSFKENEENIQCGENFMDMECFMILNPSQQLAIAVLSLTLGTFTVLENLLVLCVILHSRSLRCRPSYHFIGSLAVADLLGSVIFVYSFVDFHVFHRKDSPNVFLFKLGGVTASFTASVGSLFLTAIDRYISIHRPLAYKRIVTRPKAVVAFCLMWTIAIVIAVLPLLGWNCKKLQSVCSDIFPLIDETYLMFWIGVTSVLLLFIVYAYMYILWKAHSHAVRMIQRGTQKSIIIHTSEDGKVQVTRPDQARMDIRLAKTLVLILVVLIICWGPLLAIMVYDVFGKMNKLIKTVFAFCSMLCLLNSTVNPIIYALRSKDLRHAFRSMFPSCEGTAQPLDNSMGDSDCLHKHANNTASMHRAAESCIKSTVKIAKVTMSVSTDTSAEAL
Chain of Cannabinoid receptor 1 (P20272 whole entry): as above

SMILES	Emax [1] [%]	EC50 (Cannabinoid receptor 1) [µM]	Log EC50 [2]	Emax [3]
CCCCC/C=C\C/C=C\C/C=C\C/C=C\CC[C@H](C)C(=O)OC(CO)CO	227	15.8		
CCCCC/C=C\C/C=C\C/C=C\C/C=C\CCCC(=O)OC(CO)CO	620			
CCCCC/C=C\C/C=C\C/C=C\C/C=C\CC[C@@H](C)C(=O)OC(CF)CF			inactive	inactive
CCCCC/C=C\C/C=C\C/C=C\C/C=C\CC[C@@H](C)C(=O)OC(CO)CF (mixture of isomers)	168	15.8		
CCCCC/C=C\C/C=C\C/C=C\C/C=C\CC[C@@H](C)C(=O)OC(CO)CO	407	10		
